Data from US4345938A, “Herbicidal 2-haloacetanilides” (Monsanto Company, priority 1980, dated 1982).

Experiments:
Type in all cases: in vivo
Eleocharis kuroguwai = test: Greenhouse transplant rice test, EK; settings: about 3 WAT, read-out: Percent Inhibition, EK
Text: (§1) The test procedure used in this greenhouse test is as follows: Ray silt loam top soil containing about 0.05% by weight of krillium and sifted through a […] screen is fumigated about 5-10 days prior to use. Pots are then filled with said Ray silt loam soil to a level to allow for a 1 in. (2.54 cm) flooding depth. Rice plants (Bluebelle) of 2 to 3 weeks age are transplanted to the pots and bulbs or seeds of the test weeds also planted in the pots. The pots are then flooded and the test chemical applied to the surface of the flood water. The flood water is reduced to allow for germination of the Echinochloa crus-galli (barnyardgrass) seed and subsequently reflooded and maintained in that condition. Observations of percent inhibition using a scale of 0-100% are made about 3 weeks after transplant (WAT).
(§2) The test data in Table III for all compounds was obtained under identical test conditions. The weeds used in the tests herein have the following abbreviations in the tables: Echinochloa crus-galli (EC), Monochloria vaginalis (MV), Cyperus Serotinus (CS), Eleocharis Kuroguwai (EK) and Sagittaria trifolia (ST).

Sagittaria trifolia = test: Greenhouse transplant rice test, ST; settings: Sagittaria trifolia, about 3 WAT, read-out: Percent Inhibition, ST
Text: as §1, §2

Downy Brome = test: Pre-emergent herbicidal test, Downy Brome; further: ranges in brackets are in %
Text: (§3) A good grade of top soil is placed in aluminum pans and compacted to a depth of three-eights to one-half inch from the top of the pan. On the top of the soil is placed a number of seeds or vegetative propagules of various plant species. The soil required to level fill the pans after seeding or adding vegetative propagules is weighted into a pan. The soil and a known amount of the active ingredient applied in a solvent or as a wettable powder suspension are thoroughly mixed, and used to cover the prepared pans. After treatment, the pans are moved into a greenhouse bench where they are watered by subirrigation as needed to give adequate moisture for germination and growth.
(§4) Approximately 2 weeks after seeding and treating, the plants were observed and the results recorded. The herbicidal rating was obtained by means of a fixed scale based on the percent injury of each plant species. The ratings are defined as follows: […]

Lambsquarters = test: Pre-emergent herbicidal test, Lambsquarters; further: ranges in brackets are in %
Text: as §3, §4

Wild Buckwheat = test: Pre-emergent herbicidal test, Wild Buckwheat; settings: Table II; further: ranges in brackets are in %
Text: as §3, §4
(§5) The compounds were further tested by utilizing the above procedure on the following plant species: […]

Quackgrass = test: Pre-emergent herbicidal test, Quackgrass; settings: Table I; further: ranges in brackets are in %
Text: as §3, §4

Yellow Nutsedge = test: Pre-emergent herbicidal test, Yellow Nutsedge; settings: Table I; further: ranges in brackets are in %
Text: as §3, §4

Sorghum = test: Pre-emergent herbicidal test, Sorghum; settings: Table II; further: ranges in brackets are in %
Text: as §3, §4, §5

Barnyardgrass = test: Pre-emergent herbicidal test, Barnyardgrass; further: ranges in brackets are in %
Text: as §3, §4

Cyperus serotinus = test: Greenhouse transplant rice test, CS; settings: about 3 WAT, read-out: Percent Inhibition, CS
Text: as §1, §2

Question: Which inhibition at 280 g/ha (Eleocharis kuroguwai; 0.28 Kg/Ha) does the source give for `CCCCOc1cccc(CC)c1N(CC)C(=O)CCl` [Example 2, N-ethyl-2'-n-butoxy-6'-ethyl-2-chloroacetanilide] here?
Answer: 100%

Question: And the inhibition at 560 g/ha (Eleocharis kuroguwai; 0.56 Kg/Ha)?
Answer: 100%

Question: What about the inhibition at 1120 g/ha (Eleocharis kuroguwai; 1.12 Kg/Ha) of the same compound?
Answer: 100%

Question: And the inhibition at 2240 g/ha (Eleocharis kuroguwai; 2.24 Kg/Ha)?
Answer: 100%

Question: And the inhibition at 280 g/ha (Sagittaria trifolia; 0.28 Kg/Ha)?
Answer: 30%

Question: What about the inhibition at 560 g/ha (Sagittaria trifolia; 0.56 Kg/Ha) of the same compound?
Answer: 25%

Question: And the inhibition at 1120 g/ha (Sagittaria trifolia; 1.12 Kg/Ha)?
Answer: 70%

Question: And the inhibition at 2240 g/ha (Sagittaria trifolia; 2.24 Kg/Ha)?
Answer: 55%

Question: What about the “Rating, Downy Brome” value (Downy Brome; Table I, 5.6 kg/h) of the same compound?
Answer: 3 (75-100)

Question: What about the “Rating, Downy Brome” value (Downy Brome; Table I, 11.2 kg/h) of the same compound?
Answer: 3 (75-100)

Question: What about the “Rating, Downy Brome” value (Downy Brome; Table II, 0.01 kg/h) of the same compound?
Answer: 0 (0-24)

Question: And the “Rating, Downy Brome” value (Downy Brome; Table II, 0.06 kg/h)?
Answer: 1 (25-49)

Question: And the “Rating, Downy Brome” value (Downy Brome; Table II, 0.28 kg/h)?
Answer: 3 (75-100)

Question: And the “Rating, Downy Brome” value (Downy Brome; Table II, 1.12 kg/h)?
Answer: 3 (75-100)

Question: And the “Rating, Downy Brome” value (Downy Brome; Table II, 5.6 kg/h)?
Answer: 3 (75-100)

Question: And the “Rating, Lambsquarters” value (Lambsquarters; Table I, 5.6 kg/h)?
Answer: 3 (75-100)

Question: What about the “Rating, Lambsquarters” value (Lambsquarters; Table I, 11.2 kg/h) of the same compound?
Answer: 3 (75-100)

Question: And the “Rating, Lambsquarters” value (Lambsquarters; Table II, 0.01 kg/h)?
Answer: 0 (0-24)

Question: What about the “Rating, Lambsquarters” value (Lambsquarters; Table II, 0.06 kg/h) of the same compound?
Answer: 0 (0-24)

Question: What about the “Rating, Lambsquarters” value (Lambsquarters; Table II, 0.28 kg/h) of the same compound?
Answer: 0 (0-24)

Question: And the “Rating, Lambsquarters” value (Lambsquarters; Table II, 1.12 kg/h)?
Answer: 2 (50-74)

Question: And the “Rating, Lambsquarters” value (Lambsquarters; Table II, 5.6 kg/h)?
Answer: 3 (75-100)

Question: And the “Rating, Wild Buckwheat” value (Wild Buckwheat; 0.01 kg/h)?
Answer: 0 (0-24)

Question: What about the “Rating, Wild Buckwheat” value (Wild Buckwheat; 0.06 kg/h) of the same compound?
Answer: 0 (0-24)

Question: What about the “Rating, Wild Buckwheat” value (Wild Buckwheat; 0.28 kg/h) of the same compound?
Answer: 0 (0-24)

Question: And the “Rating, Wild Buckwheat” value (Wild Buckwheat; 1.12 kg/h)?
Answer: 1 (25-49)

Question: And the “Rating, Wild Buckwheat” value (Wild Buckwheat; 5.6 kg/h)?
Answer: 2 (50-74)

Question: And the “Rating, Quackgrass” value (Quackgrass; 5.6 kg/h)?
Answer: 3 (75-100)

Question: What about the “Rating, Quackgrass” value (Quackgrass; 11.2 kg/h) of the same compound?
Answer: 3 (75-100)

Question: And the “Rating, Yellow Nutsedge” value (Yellow Nutsedge; 5.6 kg/h)?
Answer: 3 (75-100)

Question: And the “Rating, Yellow Nutsedge” value (Yellow Nutsedge; 11.2 kg/h)?
Answer: 3 (75-100)

Question: What about the “Rating, Sorghum” value (Sorghum; 0.01 kg/h) of the same compound?
Answer: 0 (0-24)

Question: What about the “Rating, Sorghum” value (Sorghum; 0.06 kg/h) of the same compound?
Answer: 0 (0-24)

Question: What about the “Rating, Sorghum” value (Sorghum; 0.28 kg/h) of the same compound?
Answer: 1 (25-49)

Question: And the “Rating, Sorghum” value (Sorghum; 1.12 kg/h)?
Answer: 3 (75-100)

Question: What about the “Rating, Sorghum” value (Sorghum; 5.6 kg/h) of the same compound?
Answer: 3 (75-100)

Question: What about the “Rating, Barnyardgrass” value (Barnyardgrass; Table I, 5.6 kg/h) of the same compound?
Answer: 3 (75-100)

Question: And the “Rating, Barnyardgrass” value (Barnyardgrass; Table I, 11.2 kg/h)?
Answer: 3 (75-100)

Question: And the “Rating, Barnyardgrass” value (Barnyardgrass; Table II, 0.01 kg/h)?
Answer: 1 (25-49)

Question: What about the “Rating, Barnyardgrass” value (Barnyardgrass; Table II, 0.06 kg/h) of the same compound?
Answer: 3 (75-100)

Question: What about the “Rating, Barnyardgrass” value (Barnyardgrass; Table II, 0.28 kg/h) of the same compound?
Answer: 3 (75-100)

Question: What about the “Rating, Barnyardgrass” value (Barnyardgrass; Table II, 1.12 kg/h) of the same compound?
Answer: 3 (75-100)

Question: What about the “Rating, Barnyardgrass” value (Barnyardgrass; Table II, 5.6 kg/h) of the same compound?
Answer: 3 (75-100)

Question: And the inhibition at 280 g/ha (Cyperus serotinus; 0.28 Kg/Ha)?
Answer: 100%

Question: What about the inhibition at 560 g/ha (Cyperus serotinus; 0.56 Kg/Ha) of the same compound?
Answer: 100%

Question: And the inhibition at 1120 g/ha (Cyperus serotinus; 1.12 Kg/Ha)?
Answer: 100%

Question: And the inhibition at 2240 g/ha (Cyperus serotinus; 2.24 Kg/Ha)?
Answer: 100%
